Key:
Format in all cases: in vivo
[1] = system: Bermuda grass; experiment: Turfgrass quality and color ratings, Bermuda grass fairway (Example 10); design: key: 1-10; 10 = dark green turf, 1 = dead/brown, 6 = minimally acceptable; conditions: scale 1-10
Text: In this Example, the effect of a fertilizer comprising lysine on warm season turfgrass growth was examined. The effects of lysine (HCl) and LIQUID LYSINE on a common type of golf course fairway quality turfgrass (Bermuda grass) were compared with those of urea and Milorganite.
Fifteen fertilizer treatments comprising three concentrations of each fertilizer composition (Milorganite (N—P—K, 6-2-0), urea (N—P—K, 46-0-0), LIQUID LYSINE (N—P—K, 10-2-1), and both granular and aqueous lysine (HCl) (N—P—K, 15-2-1)) were prepared and applied to 4 replications of Bermuda grass. The aqueous lysine (HCl) was dissolved in water prior to application. Each fertilizer treatment was applied in concentrations of 0.5 lb N/1000 ft^2/month, 1.0 lb N/1000 ft^2/month and 3.0 lb N/1000 ft^2/month. The urea, LIQUID LYSINE and aqueous lysine (HCl) were applied as foliar liquids, while Milorganite and granular lysine (HCl) were applied as granular fertilizers Plot size was 1 m×2 m set up as a randomized complete block. Plots were mowed at 0.5 inches before fertilizer application. Irrigation (0.15 inch) was applied following application. Plots were rated for turfgrass quality and color (scale of 1-10 where 10=dark green turf, 1=dead/brown turf, and 6=minimally acceptable turf) and phytotoxicity (scale of 0-5, where 5=worst, and 2=minimally objectionable) throughout the study period. Quality, color, and phytotoxicity were measured on 2 days before application (day −2) and day 2, day 5, day 15 and day 21 after application. All data was subject to statistical analysis and significant means were determined. Average turfgrass quality ratings for the treatments are presented in Table 9 and the quality results for application rates of 1.0 lb N/1000 ft^2/month are graphically presented in FIG. 4.

[2] = system: fairway height, creeping bentgrass; experiment: Color rating of fairway height creeping bentgrass after fertilization (Example 6); conditions: about two weeks after application
Experimental: In this Example, the efficacy of fertilizers on fairway height, creeping bentgrass was examined. Fertilizer compositions according to several embodiments of the present disclosure were prepared and compared to the commercial fertilizer products, urea 46-0-0 (granular) fertilizer, Lebanon fertilizer 21-0-12 (granular, commercially available from Lebanon Seaboard Corporation, Lebanon, Pa.) and Milorganite 6-2-0 (granular, commercially available from Milorganite, Milwaukee, Wis.). The fertilizer compositions were applied to turf prior to winter dormancy at a rate equivalent to supplying about 1.0 pounds of nitrogen (N) per 1000 square feet. Each of the fertilizer compositions were applied at substantially equal rates of lbs of nitrogen (N) per 1000 square feet. Table 3 illustrates the response of fairway height, creeping bentgrass to fertilization using various exemplary fertilizers of the present invention, taken about two weeks after application of the fertilizer. The letters in the Color and Injury columns correspond to Duncan's Multiple Range Test. Numbers (means) in a column followed by the same letter are not statistically different at P=0.05.

[3] = system: rhizomatous tall fescue grass; experiment: Turfgrass quality and color ratings, rhizomatous tall fescue (Example 14); conditions: scale of 1-10
Experimental: In this Example, the effect of a fertilizer comprising lysine on turfgrass growth was examined. The effects of lysine (HCl) and LIQUID LYSINE on a common type of lawn quality turfgrass (rhizomatous tall fescue) were compared with those of CoRoN® brand fertilizer.
Six fertilizer treatments comprising two concentrations of each fertilizer composition (Coron® (N—P—K, 14-2-34), LIQUID LYSINE (N—P—K, 10-2-1), and lysine (HCl) (N—P—K, 15-2-1)) were prepared and applied to 3 replications of rhizomatous tall fescue grass. The solutions of lysine (HCl) (dissolved in 0.5 gal water), LIQUID LYSINE and Coran were applied using a Birchmeier backpack sprayer with a 5 foot spray pattern, Each fertilizer treatment was applied in either a 3-split application with an application rate of 2 lb N/1000 ft^2 or a 6-split application with an application rate of 1 lb N/1000 ft^2. Plot size was 9 ft×9 ft set up as a randomized complete block. Irrigation was applied following application. Plots were rated for turfgrass quality and color (scale of 1-10 where 10=dark green turf, 1 =dead/brown turf, and 6=minimally acceptable turf and phytotoxicity (% burn) throughout the study period and compared with two untreated plots. Quality, color, and phytotoxicity were measured on day 7, day 14, day 21, day 28, day 35, and day 42 after application. All data was subject to statistical analysis and significant means were determined. Average turfgrass quality ratings for the treatments are presented in Table 21. Average turfgrass color ratings are presented in Table 22. Average phytotoxicity ratings (as % burn) are presented in Table 23.

[4] = Monthly Rate 0.5 lbs N/1000 ft^2, Day 2
[5] = Monthly Rate 0.5 lbs N/1000 ft^2, Day 5
[6] = Monthly Rate 0.5 lbs N/1000 ft^2, Day 15
[7] = Monthly Rate 0.5 lbs N/1000 ft^2, Day 21
[8] = Monthly Rate 0.5 lbs N/1000 ft^2, Day −2 (before application)
[9] = Monthly Rate 1.0 lbs N/1000 ft^2, Day 2
[10] = Monthly Rate 1.0 lbs N/1000 ft^2, Day 5
[11] = Monthly Rate 1.0 lbs N/1000 ft^2, Day 15
[12] = Monthly Rate 1.0 lbs N/1000 ft^2, Day 21
[13] = Monthly Rate 1.0 lbs N/1000 ft^2, Day −2 (before application)
[14] = Monthly Rate 3.0 lbs N/1000 ft^2, Day 2
[15] = Monthly Rate 3.0 lbs N/1000 ft^2, Day 5
[16] = Monthly Rate 3.0 lbs N/1000 ft^2, Day 15
[17] = Monthly Rate 3.0 lbs N/1000 ft^2, Day 21
[18] = Monthly Rate 3.0 lbs N/1000 ft^2, Day −2 (before application)
[19] = 3-split, 2.0 lb N/1000 ft^2, Day 7
[20] = 3-split, 2.0 lb N/1000 ft^2, Day 14
[21] = 3-split, 2.0 lb N/1000 ft^2, Day 21
[22] = 3-split, 2.0 lb N/1000 ft^2, Day 28
[23] = 3-split, 2.0 lb N/1000 ft^2, Day 35
[24] = 6-split, 1.0 lb N/1000 ft^2, Day 7
[25] = 6-split, 1.0 lb N/1000 ft^2, Day 14
[26] = 6-split, 1.0 lb N/1000 ft^2, Day 21
[27] = 6-split, 1.0 lb N/1000 ft^2, Day 28
[28] = 6-split, 1.0 lb N/1000 ft^2, Day 35

## NC(N)=O [Urea, urea, reference compound]
[1]; [4]
  Color Ratings - Bermuda Grass: 7.4
  Quality Ratings - Bermuda Grass: 7.5ab
[1]; [5]
  Color Ratings - Bermuda Grass: 7.6efg
  Quality Ratings - Bermuda Grass: 7.5cd
[1]; [6]
  Color Ratings - Bermuda Grass: 7.4de
  Quality Ratings - Bermuda Grass: 7.5de
[1]; [7]
  Color Ratings - Bermuda Grass: 7.6cd
  Quality Ratings - Bermuda Grass: 7.5f
[1]; [8]
  Color Ratings - Bermuda Grass: 6.5
  Quality Ratings - Bermuda Grass: 6.3
[1]; [9]
  Color Ratings - Bermuda Grass: 7.6
  Quality Ratings - Bermuda Grass: 7.5ab
[1]; [10]
  Color Ratings - Bermuda Grass: 8.0def
  Quality Ratings - Bermuda Grass: 7.9abc
[1]; [11]
  Color Ratings - Bermuda Grass: 7.3de
  Quality Ratings - Bermuda Grass: 7.6de
[1]; [12]
  Color Ratings - Bermuda Grass: 7.6cd
  Quality Ratings - Bermuda Grass: 7.6ef
[1]; [13]
  Color Ratings - Bermuda Grass: 6.5
  Quality Ratings - Bermuda Grass: 6.3
[1]; [14]
  Color Ratings - Bermuda Grass: 8.0
  Quality Ratings - Bermuda Grass: 8.1a
[1]; [15]
  Color Ratings - Bermuda Grass: 8.8ab
  Quality Ratings - Bermuda Grass: 8.3ab
[1]; [16]
  Color Ratings - Bermuda Grass: 7.5cde
  Quality Ratings - Bermuda Grass: 7.9de
[1]; [17]
  Color Ratings - Bermuda Grass: 7.9bcd
  Quality Ratings - Bermuda Grass: 7.8def
[1]; [18]
  Color Ratings - Bermuda Grass: 6.4
  Quality Ratings - Bermuda Grass: 6.1
[2]; 1.09 Lbs. product/1000 square feet
  Color 1-9 (9 = dark green): 6.7
[2]; 2.17 Lbs. product/1000 square feet
  Color 1-9 (9 = dark green): 7.0
[2]; 6.51 Lbs. product/1000 square feet
  Color 1-9 (9 = dark green): 7.7

## Cl.NCCCC[C@H](N)C(=O)O [Lys (HCl) 15% N, L-lysine monohydrochloride]
[3]; [19]
  Color Ratings - Tall fescue grass: 5.0 days
  Quality Ratings - Tall fescue grass: 5.7c
[3]; [20]
  Color Ratings - Tall fescue grass: 6.0b
  Quality Ratings - Tall fescue grass: 7.0b
[3]; [21]
  Color Ratings - Tall fescue grass: 7.0bc
  Quality Ratings - Tall fescue grass: 7.0b
[3]; [22]
  Color Ratings - Tall fescue grass: 8.0a
  Quality Ratings - Tall fescue grass: 8.0a
[3]; [23]
  Color Ratings - Tall fescue grass: 8.0a
  Quality Ratings - Tall fescue grass: 8.0a
[3]; [24]
  Color Ratings - Tall fescue grass: 6.0c
  Quality Ratings - Tall fescue grass: 6.0c
[3]; [25]
  Color Ratings - Tall fescue grass: 7.0a
  Quality Ratings - Tall fescue grass: 7.0b
[3]; [26]
  Color Ratings - Tall fescue grass: 7.0bc
  Quality Ratings - Tall fescue grass: 7.7a
[3]; [27]
  Color Ratings - Tall fescue grass: 8.0a
  Quality Ratings - Tall fescue grass: 8.0a
[3]; [28]
  Color Ratings - Tall fescue grass: 8.0a
  Quality Ratings - Tall fescue grass: 8.0a

— US7811352B2, “Fertilizer compositions and methods of using” (priority 2005, dated 2010)
